Measured values from patent US20120034613A1, “Apparatus and Method for Testing Relationships Between Gene Expression and Physical Appearance of Skin” (NSE Products, Inc., priority 2010, published 2012).

System: EpidermFT™ Skin Model (EFT-400) full thickness skin cultures
Assay: Affymetrix GeneChip HG U133 Plus 2.0 microarray global gene expression, agent-exposed vs untreated skin cultures
Type: cell-based, human
Conditions: Salicin 0.5% vs Untreated Control, 24 hr treatment

OCc1ccccc1O[C@@H]1O[C@H](CO)[C@@H](O)[C@H](O)[C@H]1O [Salicin, 2-(Hydroxymethyl)phenyl β-D-glucospyranoside]
up: Direction ABHD2 (221815_at) | Direction ABHD2 (225337_at) | Direction ADAMTS5 (235368_at) | Direction ADAMTS6 (1570351_at) | Direction ADCYAP1 (230237_at) | Direction AHI1 (220841_s_at) | Direction AHI1 (221569_at) | Direction AKR1C1 (1562102_at) | Direction AKT3 (212607_at) | Direction AKT3 (212609_s_at) | Direction AKT3 (222880_at) | Direction AKT3 (224229_s_at) | Direction ALG9 (228817_at) | Direction ANKRD28 (213035_at) | Direction ANKRD28 (229307_at) | Direction ARMC8 (1555281_x_at) | Direction ARNT2 (202986_at) | Direction ATF3 (1554980_a_at) | Direction ATP2A3 (207522_s_at) | Direction BAG2 (209406_at) | Direction BCL2L11 (1558143_a_at) | Direction BNC2 (220272_at) | Direction BNC2 (235723_at) | Direction C1GALT1C1 (238989_at) | Direction C1orf67 /// DNAH14 (242283_at) | Direction C13orf33 (227058_at) | Direction CABLES1 (225532_at) | Direction CARD16 (1552701_a_at) | Direction CCR1 (205098_at) | Direction CDCP1 (1554110_at) | Direction CDR2 (209501_at) | Direction CHST2 (203921_at) | Direction CLGN (205830_at) | Direction CNOT3 (203239_s_at) | Direction CPM (241765_at) | Direction CPM (243403_x_at) | Direction CREM (207630_s_at) | Direction CUL4B (202213_s_at) | Direction CXCL1 (204470_at) | Direction CYP7B1 (207386_at) | Direction CYR61 (210764_s_at) | Direction DENND3 (212975_at) | Direction DENND5B (228551_at) | Direction DGKI (206806_at) | Direction DNAJB9 (202842_s_at) | Direction DNAJB9 (1554462_a_at) | Direction DNAJC10 (221781_s_at) | Direction DNAJC10 (221782_at) | Direction DOCK4 (205003_at) | Direction DOCK5 (230206_at) | Direction DOCK5 (230263_s_at) | Direction DOK6 (236290_at) | Direction DSEL (232825_s_at) | Direction DUSP4 (204015_s_at) | Direction DZIP1 (204557_s_at) | Direction EIF2AK3 (218696_at) | Direction ELL2 (214446_at) | Direction ELTD1 (219134_at) | Direction ENPP1 (205066_s_at) | Direction ENTPD7 (220153_at) | Direction EPS8 (202609_at) | Direction EREG (205767_at) | Direction ERO1LB (220012_at) | Direction FADS1 (208963_x_at) | Direction FADS1 (208964_s_at) | Direction FAM20A (226804_at) | Direction FAM107B (223058_at) | Direction FAM107B (223059_s_at) | Direction FAR2 (220615_s_at) | Direction FAT4 (219427_at) | Direction FEM1B (212374_at) | Direction FGF7 (1555103_s_at) | Direction FGF7 /// KGFLP1 /// KGFLP2 (1554741_s_at) | Direction FHOD3 (218980_at) | Direction FKBP11 (219117_s_at) | Direction FKBP11 (219118_at) | Direction FMN2 (1555471_a_at) | Direction FN1 (214701_s_at) | Direction FN1 (214702_at) | Direction FOXJ3 (217310_s_at) | Direction FPR1 (205119_s_at) | Direction GAS1 (204457_s_at) | Direction GCLM (203925_at) | Direction GCLM (236140_at) | Direction GEM (204472_at) | Direction GFPT1 (226886_at) | Direction GFPT2 (205100_at) | Direction GLIPR1 (204222_s_at) | Direction GRAMD1A (224807_at) | Direction GRAMD1B (212906_at) | Direction GUCY1A3 (221942_s_at) | Direction GUCY1A3 (229530_at) | Direction HERC3 (1554290_at) | Direction HEY1 (44783_s_at) | Direction HIST1H2AB /// HIST1H2AE (214469_at) | Direction HIST1H2AD /// HIST1H3A /// HIST1H3B /// HIST1H3C /// HIST1H3D /// HIST1H3E /// HIST1H3F /// HIST1H3G /// HIST1H3H /// HIST1H3I /// HIST1H3J (214472_at) | Direction HIST2H2AA3 /// HIST2H2AA4 (214290_s_at) | Direction HK2 (222305_at) | Direction HOXB2 (205453_at) | Direction HSD17B2 (204818_at) | Direction HSPA13 (202557_at) | Direction ID2 /// ID2B (213931_at) | Direction IGFBP5 (211958_at) | Direction ING1 (209808_x_at) | Direction IRAK2 (231779_at) | Direction IRAK3 (220034_at) | Direction ITPRIP (225582_at) | Direction JHDM1D (225142_at) | Direction KCNA3 (207237_at) | Direction KCNE4 (222379_at) | Direction KCNE4 (1552508_at) | Direction KCNJ8 (205303_at) | Direction KCNJ8 (205304_s_at) | Direction KLF15 (231015_at) | Direction KLHL29 (229310_at) | Direction LCP1 (208885_at) | Direction LOC285628 (232504_at) | Direction LOC440028 (1562606_a_at) | Direction LOC729222 /// PPFIBP1 (214375_at) | Direction LOC100128821 /// ZEB2 (235593_at) | Direction LOC100132244 (229438_at) | Direction LPAR1 (204036_at) | Direction LPAR1 (204037_at) | Direction LPAR1 (204038_s_at) | Direction LPPR4 (213496_at) | Direction LRCH2 (227688_at) | Direction LRRK2 (229584_at) | Direction MAGEA4 (214254_at) | Direction MAP3K4 (216199_s_at) | Direction MAP3K5 (203836_s_at) | Direction MAP9 (220145_at) | Direction MASP1 (232224_at) | Direction MASP1 (235770_at) | Direction MESDC1 (223264_at) | Direction MGST1 (239001_at) | Direction MMD (203414_at) | Direction MTHFD2L (220346_at) | Direction MYO3B (1552578_a_at) | Direction NAMPT (217738_at) | Direction NEGR1 (1553194_at) | Direction NEXN (226103_at) | Direction NFKB2 (207535_s_at) | Direction NFKBIZ (223217_s_at) | Direction NOVA1 (205794_s_at) | Direction NR4A1 (202340_x_at) | Direction NRP2 (228699_at) | Direction OLAH (222945_x_at) | Direction PAPPA (201981_at) | Direction PAPPA (224940_s_at) | Direction PAPPA (224941_at) | Direction PAPPA (228128_x_at) | Direction PAPPA (1559400_s_at) | Direction PCDH7 (210941_at) | Direction PCSK1 (205825_at) | Direction PDE4D (211840_s_at) | Direction PEG10 (212092_at) | Direction PF4 (206390_x_at) | Direction PGM2L1 (229256_at) | Direction PHLDA1 (217996_at) | Direction PHTF1 (215285_s_at) | Direction PI15 (229947_at) | Direction PID1 (219093_at) | Direction PID1 (237867_s_at) | Direction PISD (202392_s_at) | Direction PITPNC1 (238649_at) | Direction PLAUR (211924_s_at) | Direction PLEKHA3 (223370_at) | Direction PTGER4 (204897_at) | Direction PTGES (207388_s_at) | Direction PTGES (210367_s_at) | Direction PTGS1 (205128_x_at) | Direction PTGS1 (215813_s_at) | Direction PTHLH (206300_s_at) | Direction PTHLH (211756_at) | Direction PTPRG (204944_at) | Direction QKI (228540_at) | Direction RAB3B (205924_at) | Direction RAB3B (227123_at) | Direction RAB23 (220955_x_at) | Direction RABGGTB (209180_at) | Direction RABGGTB (213704_at) | Direction RAI14 (202052_s_at) | Direction RASSF8 (235996_at) | Direction RGS3 (203823_at) | Direction RGS5 (209070_s_at) | Direction RGS12 (242079_at) | Direction RHOQ (212122_at) | Direction SEC24A (212902_at) | Direction SEMA3A (206805_at) | Direction SETDB2 (235339_at) | Direction SGK1 (201739_at) | Direction SH3RF3 (228461_at) | Direction SHOX (207570_at) | Direction SLC6A15 (232263_at) | Direction SLC11A2 (237106_at) | Direction SLC20A1 (230494_at) | Direction SLC43A3 (210692_s_at) | Direction SLFN11 (226743_at) | Direction SLIT2 (209897_s_at) | Direction SNHG12 (223774_at) | Direction SOCS2 (203373_at) | Direction SPON1 (209437_s_at) | Direction SPON1 (213993_at) | Direction SQSTM1 (213112_s_at) | Direction ST3GAL1 (208322_s_at) | Direction ST3GAL1 (225033_at) | Direction STK17B (205214_at) | Direction SULF1 (212344_at) | Direction TAF1A (206613_s_at) | Direction TAGLN (205547_s_at) | Direction TBC1D1 (212350_at) | Direction TBC1D1 (227945_at) | Direction TGM2 (201042_at) | Direction THBS1 (201108_s_at) | Direction THBS1 (239336_at) | Direction THRAP3 (242163_at) | Direction TMEM38B (222735_at) | Direction TMEM38B (222736_s_at) | Direction TMEM39A (218615_s_at) | Direction TMEM39A (222690_s_at) | Direction TMTC1 (226322_at) | Direction TMTC1 (226931_at) | Direction TNC (216005_at) | Direction TNFAIP6 (206026_s_at) | Direction TNIP3 (220655_at) | Direction TRPA1 (217590_s_at) | Direction TRPC4 (224220_x_at) | Direction UBE2B (239163_at)
